The results in this text go back to patent US20200330456A1, “NOVEL APPLICATION OF GZD824 AND PHARMACEUTICALLY ACCEPTABLE SALTS THEREOF IN TREATING DISEASES” (HEALTHQUEST PHARMA INC., priority 2016, published 2020).

The test system of one test is IRS1. Briefly: Immunoblotting of NALM6 cells, IRS1. Format: cell-based. The note with it: 3 μM/L, 1 μM/L, 24 hours. The procedure: (§1) 6.3 After treating NALM6 cells with GZD824 of different concentrations (3 μM/L, 1 μM/L) for 24 hours, the cells were collected and lysed. With immunoblotting method, anti-phospho-AKT, AKT and IRS1 antibodies were used to analyze the lysates.

Test [1] concerns human primary leukemia cells from P #1 PDX mouse spleen. Briefly: Apoptosis of human primary leukemia cells from P #1 PDX mouse spleen, with and without IGF-1. Format: cell-based. As to conditions: P #1 PDX spleen cells; GZD824 1 μM/L, 24 hours, vs DMSO. The method, then:
6.2 Human primary leukemia cells were extracted from P #1 PDX mouse spleen and co-cultured with DMSO, GZD824 (1 μM/L), IGF-1 (10 ng/mL), or GZD824 (1 μM/L) and IGF-1 (10 ng/mL) for 24 hours. The ratios of ANNEXIN V positive cells were analyzed by statistical methods. […] Please refer to FIG. 17 for the experimental results.

The test system of test [2] is NALM6 cells. Briefly: Apoptosis kit (ANNEXIN V, PI) flow cytometry, NALM6. The format is cell-based. The note with it: 24 hours. The procedure:
1.2 After treating NALM6 and SUPB15 cells respectively with GZD824 (3 μM, 1 μM) and DMSO of different concentrations for 24 hours, apoptosis was detected using an apoptosis kit (ANNEXIN V, PI). Please refer to FIG. 2 for the results. After treating the two types of cells NALM6 and SUPB15 respectively with GZD824 of different concentrations (3 μM/L, 1 μM/L) for 24 hours, the cells were stained with the apoptosis kit (ANNEXIN V, PI), and apoptosis was detected with flow cytometry.
5.3 After treating NALM6 cells with GZD824, SRC suppressor (KX2-391), STAT3 suppressor (HO-3867) or DMSO for 24 hours, apoptosis was detected by using the apoptosis kit (ANNEXIN V, PI). The ratio of ANNEXIN V positive cells was analyzed by statistical methods. […] For the experimental results, please refer to FIG. 15.

Test [3] has as its system NALM6 cells. Briefly: Cell cycle by flow cytometry, NALM6. The format is cell-based. The note with it: 3 μM/L, 24 hours, vs DMSO. The procedure: (§2) 1.3 After treating the two types of cells, i.e. NALM6 and SUPB15, with GZD824 (3 μM/L) and DMSO respectively for 24 hours and then treating them with a cell cycle kit, the cell cycle was measured with flow cytometry. […] Please refer to FIG. 3 for the results.

Another test deals with SUPB15 cells. Briefly: Cell cycle by flow cytometry, SUPB15. The format is cell-based. The note with it: 3 μM/L, 24 hours, vs DMSO. The method, then: as §2
The next test relates to phosphorylated SRC. Briefly: Western blot of NALM6 cells, phospho-SRC. The format is cell-based. The note with it: 3 μM/L, 1 μM/L, 24 hours. The procedure:
5.1. NALM6 cells treated with GZD824 were detected by Western blot method. After treating NALM6 cells with GZD824 of different concentrations (3 μM/L, 1 μM/L) for 24 hours, cells were collected and lysed to extract proteins. According to procedure of Western blot method, the extracted total proteins were analyzed with phospho-SRC, SRC, phospho-STAT3, STAT3, phospho-Rb, Rb and c-Myc antibodies. […] From the protein perspective, GZD824 kills leukemia cells through suppressing SRC/STAT3 signal pathway. Please refer to FIG. 13 for the experimental results.

For test [4], the system named is SUPB15 (Ph-positive acute lymphoblastic leukemia cell line). The experiment in a line: CCK8 cell activity test, SUPB15. Format: cell-based. The note with it: GZD824 0-3 μM/L, 24 hours. The method, then:
1.1 Two types of cells, i.e. NALM6 (Ph-negative acute lymphoblastic leukemia cell line) and SUPB15 (Ph-positive acute lymphoblastic leukemia cell line), were treated with GZD824 of different concentrations (0-3 μM/L) respectively. After 24 hours, CCK8 is added. The mixture was incubated for 2 hours, and then its absorption value at 450 nm was detected with a microplate reader. […] We plotted a chart of cell activity based on the growth inhibition function of GZD824 on these […] types of cells, which is as shown in FIG. 1.

Another test deals with phosphorylated AKT. Briefly: Immunoblotting of NALM6 cells, phospho-AKT. The format is cell-based. The note with it: 3 μM/L, 1 μM/L, 24 hours. The method, then: as §1
Test [5] has as its system primary pre-B ALL PDX in immunodeficient mouse (NSI). The experiment in a line: PDX mouse model, human CD45 positive cells by flow cytometry. Format: in vivo. The note with it: vs Imatinib and DMSO. The method, then:
4.1 After administration, PDX mice originated from patient P #1 were executed. The mouse blood was treated with red blood cell lysate to obtain the peripheral blood leukocytes. The mouse spleen was ground with 100 mesh screen to obtain spleen single cells. The marrow cells in the mouse marrow were washed with 1 mL injector to obtain mouse marrow single cells. The obtained mouse peripheral blood leukocytes, mouse spleen single cells and mouse marrow single cells from the above-mentioned steps were stained with anti-CD45-PE antibody and detected with flow cytometry.
4.2 Using the same treatment method in FIG. 9, the ratios of CD45 positive cells in mouse blood, spleen and marrow were detected by flow cytometry and the ratios of CD45 positive cells in PDX mouse blood, spleen and marrow originated from different patients (P #1(B), P #2(C), P #3(D)) were obtained by statistical analysis. […] Please refer to FIG. 10 for the results.
4.3 Using the same treatment method in FIG. 9, PDX mice originated from patient P #4 were executed after administration. The ratios of human CD45 positive cells in mouse blood, spleen and marrow were analyzed. […] Please refer to FIG. 11 for the results.
4.4 Using the same treatment method in FIG. 9, the ratios of CD45 positive cells in mouse blood, spleen and marrow were detected with flow cytometry and the ratios of CD45 positive cells in PDX mouse blood, spleen and marrow originated from different patients (P #4(F) and P #5(G)) were obtained by statistical analysis. […] Please refer to FIG. 12 for the results.

Test [6] has the same test system. Briefly: PDX mouse model, Giemsa / Hematoxylin-eosin staining of blood, spleen and marrow. Format: in vivo. The note with it: PDX patient P #2; vs Imatinib and DMSO. The procedure: 3.3 After executing mice in GZD824, Imatinib or DMSO groups, blood (upper FIG. 8), spleen (middle FIG. 8) and marrow (lower FIG. 8) tissues were stained with Giemsa staining or Hematoxylin-eosin staining method. 10-20 μL of mouse blood drop was pipetted to a glass slide, and evenly spread on the slide, dried in shade at room temperature, stained with Giemsa working fluid for 15 minutes and eluted with eluents. After being fixed with neutral formaldehyde for 24 hours, the mouse spleen and marrow were dehydrated, made transparent, waxed, embedded, sliced, stained and then observed with a microscope.

For `Cc1ccc(C(=O)Nc2ccc(CN3CCN(C)CC3)c(C(F)(F)F)c2)cc1C#Cc1cnc2[nH]ncc2c1` [GZD824, (3-((1H-pyrazol[3,4-b]pyridine-5-substituted)ethinyl)-4-methyl-N-(4-((4-methylpiperazine-1-substituted)methyl)-3-(trifluoromethyl)phenyl)benzamide)], the “expression of IRS1” value in the test on IRS1 is “down-regulate the expression”. In [1], the “apoptosis of primary leukemia cells (ANNEXIN V positive cells)” value was “facilitate apoptosis of the primary leukemia cells”. For the same compound, the “apoptosis (ANNEXIN V positive cells)” value in the test on NALM6 cells [2] (3 μM, 1 μM, vs DMSO) is “prominently enhance apoptosis”. Also, the “ratio of apoptosis (ANNEXIN V positive cells), comparison of inhibitors” value with NALM6 cells [2] (GZD824 vs KX2-391 vs HO-3867 vs DMSO) is on record as “highest ratio of apoptosis”. The “ratio of cells at G0/G1 phase” value in the test with NALM6 cells [3] and with SUPB15 cells was “increase the ratio of these two types of cells at G0/G1 phase” throughout. In the test on phosphorylated SRC, the “expression of phosphorylated SRC” value is listed as “suppresses the expression”. Further, in [4], the “cell activity (CCK8, absorption at 450 nm)” value is “prominently decrease the cell activity”. In addition, the “expression of phosphorylated AKT” value in the test on phosphorylated AKT was “down-regulate the expression”. For the same compound, in test [5] (PDX patient P #1, flow pattern), the “ratio of human CD45 positive cells in mouse blood, spleen and marrow” value is “prominently decrease the ratio of human CD45 positive cells in mouse blood, spleen and marrow”. The “ratio of human CD45 positive cells in mouse blood” value in [5] (PDX patient P #4) is recorded as “prominently decrease the ratio of human CD45 positive cells in mouse blood”; in [5] (PDX patients P #4 and P #5, statistical analysis), “prominently decrease the ratio of human CD45 positive cells in mouse blood”. The “ratios of human CD45 positive cells in mouse blood, spleen and marrow” value in test [5] (PDX patients P #1, P #2, P #3, statistical analysis) is “prominently decrease the ratios of human CD45 positive cells in mouse blood, spleen and marrow”. Besides, the “infiltration of primary leukemia cells in mouse blood, spleen and marrow (staining)” value in test [6] is “prominently decrease the infiltration of the primary leukemia cells”.
